Laboratory results reported in article PMC9668969 (Nature Communications, 2022).
Values joined by “and” are separate entries in the source; they are usually repeats but may differ in a detail not shown here. Equal values may be shown once.

Tests used:
ELIC = conditions: cited from earlier work
WT ELIC = assay: Asymmetric liposome stopped-flow Tl+ flux assay (no exchange vs exchange, 25 mol% outer leaflet POPG); type: biochemical, Erwinia chrysanthemi; parameters: key to Tl+ flux quenching rate, Avg. / Tl+ flux quenching rate: Tl+ influx rate kt at 2 ms from stretched-exponential fit (Eq. 2b); conditions: for Tl+ flux quenching rate, Avg. / Tl+ flux quenching rate: No-exchange: WT in 3:1 PC:PE with just beta-CD, 10 mM propylamine; for Tl+ flux quenching rate: single experiments
Procedure: The fluorescence sequential-mixing stopped-flow liposomal flux measurements were carried using an SX20 stopped-flow spectrofluorometer (Applied Photophysics) and Pro-Data SX software[13],[30]. 7.5 mg of the respective lipid mixture (POPC, 1:1 POPC: POPE, 1:1 POPC:POPG, 3:1 POPC:POPE, 3:1 POPC:POPG, 2:1:1 POPC:POPE:POPG) was dried in a glass vial to a thin film under a constant stream of N2. The lipids were then further dried under vacuum in a desiccator overnight. The following day the lipids were hydrated in 500 µl of reconstitution buffer (100 mM NaNO3, 10 mM HEPES, pH 7) (Buffer R), 250 µl of 75 mM 8-Aminonaphthalene-1,3,6-Trisulfonic Acid (ANTS, ThermoFisher Scientific) in buffer R, and doped with ~18 mg of CHAPS (Anatrace). The mixture was vortexed and then sonicated with heat until completely solubilized. Following the sonication, the solution was brought to RT then 3.5 µl of 6.7 mg/ml ELIC in Buffer A with 0.02% DDM was added (3 µg per mg of lipid). This combined solution was incubated at RT for 30 min, followed by the addition of 1 ml of 1:1 v/v SM-2 BioBeads in Buffer R and an additional 250 µl of 75 mM ANTS in Buffer R. This mixture was incubated at RT for 2.5 hr with gentle mixing. The liposome suspension was then extruded with an Avanti mini-extruder and 0.1 µm membrane (30×). The extruded liposomes were stored at 13 °C overnight with gentle rotation. The next day, the liposomes were diluted to 2.5 mL using assay buffer (140 mM NaNO3, 10 mM HEPES, pH 7) (Stopped-flow Buffer A), loaded into a PD-10 desalting column (Cytiva), eluted with 3 mL of Stopped-flow Buffer A and subsequently diluted 5-fold with Stopped-flow Buffer A.
Using propylamine as the agonist, the assay and analysis was carried out as previously described[13],[30]. ELIC-containing liposomes were first mixed 1:1 with Buffer A containing 2× the concentration of propylamine. After a variable delay of 10 ms to 25 s, the sample was then mixed 1:1 with a quenching buffer (90 mM NaNO3, 50 mM TlNO3, 10 mM HEPES, pH 7), and ANTS fluorescence (ex. 360 nm, fluorescence above 420 nm) was recorded for 1 s. For each delay time, 5 repeat measurements were obtained. The data were collected using Applied Photophysics Pro-Data SX software. The fluorescence quenching traces were fit to a stretched exponential (Eq. 2a) and the rate of Tl^+ influx was determined at 2 ms (Eq. 2b).2a Ft=F∞+F0−F∞⋅e^−t/τ^β 2b kt=β/τ⋅2ms/τ^(β−1) where Ft, F∞, F0 are the fluorescence at time t, final fluorescence and initial fluorescence. τ is the time constant, β the stretched exponential factor, and kt the calculated rate of Tl^+ influx at 2 ms. The time course of desensitization was also fit to a double exponential and a weighted time constant was calculated as was done for the patch-clamp data using Origin 2019b. All replicates were taken from independent samples.
Acceptor liposomes were prepared as described in the Stopped-flow fluorescence recordings section until completion of the extrusion step. The preparation was scaled up 2x to produce samples for the no-exchange and exchange conditions. After extrusion and storage of the liposomes overnight at 13 °C, the double liposome preparation was split into two equal volume aliquots of ~1.5 ml. Using the excel spreadsheet provided by Markones et al.[44], donor POPG and methyl-β-cyclodextrin (MβCD, Sigma) concentrations and volumes were calculated to produce an outer leaflet POPG content of 25 mol% in the liposomes. The calculations assumed a ~6.66 mM lipid concentration and 1.5 mL volume of the acceptor liposome solution[44]. A MβCD-POPG (50% saturation of MβCD by POPG) solution was formed by combining 224 µL 7.5 mM POPG in Stopped-flow Buffer A, 650 µl 300 mM MβCD in Stopped-flow Buffer A, and 126 µL Stopped-flow Buffer A, which was then mixed at 50 °C and 1000 RPM for 20 min using an Eppendorf thermomixer. […]

## CC/C=C\C/C=C\C/C=C\C/C=C\C/C=C\C/C=C\CCC(=O)O [DHA, docosahexaenoic acid]
ELIC
  effect on ELIC agonist response: decreases peak agonist response and increases desensitization

## cardiolipin
ELIC
  effect on ELIC: positively modulates ELIC

## methyl-β-cyclodextrin
WT ELIC; delay 0.01 s
  Tl+ flux quenching rate, Avg.: 12.9647
WT ELIC; delay 0.025 s
  Tl+ flux quenching rate, Avg.: 13.7625
  Tl+ flux quenching rate: 9.097 and 18.0228 and 11.9906 and 15.9401
WT ELIC; delay 0.05 s
  Tl+ flux quenching rate, Avg.: 18.86
WT ELIC; delay 0.1 s
  Tl+ flux quenching rate, Avg.: 31.5581
WT ELIC; delay 0.25 s
  Tl+ flux quenching rate, Avg.: 29.5756
  Tl+ flux quenching rate: 35.4461 and 38.8846 and 20.2406 and 23.7309
WT ELIC; delay 0.5 s
  Tl+ flux quenching rate, Avg.: 31.8845
WT ELIC; delay 1 s
  Tl+ flux quenching rate, Avg.: 34.9406
WT ELIC; delay 2.5 s
  Tl+ flux quenching rate, Avg.: 21.2322
  Tl+ flux quenching rate: 25.1548 and 26.3221 and 15.7795 and 17.6721
WT ELIC; delay 5 s
  Tl+ flux quenching rate, Avg.: 10.788
  Tl+ flux quenching rate: 10.4577 and 9.241 and 15.1687 and 8.284
WT ELIC; delay 10 s
  Tl+ flux quenching rate, Avg.: 2.374
WT ELIC; delay 25 s
  Tl+ flux quenching rate, Avg.: 1.305
WT ELIC; methyl-β-cyclodextrin alone, 3:1 POPC:POPE liposomes
  effect on ELIC responses: did not alter ELIC responses
